Test results reported in PubChem BioAssay (NCI).
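Cells were grown in 96-well plates and exposed to each compound for 48 hours at five concentrations; endpoints were interpolated linearly between bracketing concentrations, or set to the highest concentration if not reached. At the GI50, growth is halved. The concentration for full growth arrest is given as TGI.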

Key:
Test in all cases: DTP human tumour cell line panel, 48 h
SK-MEL-5 melanoma = system: SK-MEL-5 melanoma
HOP-62 NSCLC = system: HOP-62 NSCLC
NCI-H226 lung = system: NCI-H226 lung
SNB-19 CNS = system: SNB-19 CNS
HCC-2998 colon = system: HCC-2998 colon
HT29 colon = system: HT29 colon
NCI-H23 lung = system: NCI-H23 lung
OVCAR-4 ovarian = system: OVCAR-4 ovarian
786-0 renal = system: 786-0 renal
DU-145 prostate = system: DU-145 prostate

CC(=O)O[C@H]1CC[C@@]2(C)C(CC[C@]3(C)C2CC[C@]2(C)Oc4c(C)cc(O)cc4C[C@@H]23)C1(C)C (some centres undefined)
TGI (SK-MEL-5 melanoma): 18.4 µM
TGI (HOP-62 NSCLC): 30.6 µM
TGI (NCI-H226 lung): 35.3 µM
TGI (SNB-19 CNS): 14.4 µM
TGI (HCC-2998 colon): 22.2 µM
TGI (HT29 colon): 23.9 µM
TGI (NCI-H23 lung): 21.6 µM
TGI (OVCAR-4 ovarian): 22.2 µM
TGI (786-0 renal): 4.44 µM

Oc1ccc2occ3c2c1CCC3
TGI (SK-MEL-5 melanoma): > 100 µM
TGI (HOP-62 NSCLC): > 100 µM
TGI (SNB-19 CNS): > 100 µM
TGI (HCC-2998 colon): > 100 µM
TGI (HT29 colon): > 100 µM
TGI (NCI-H23 lung): > 100 µM
TGI (OVCAR-4 ovarian): > 100 µM
TGI (786-0 renal): > 100 µM

O=c1[nH]c(=O)n(C2CC(O)C(CO)O2)cc1C(OCC(F)(F)F)OCC(F)(F)F (centres undefined)
TGI (SK-MEL-5 melanoma): > 100 µM
TGI (HOP-62 NSCLC): > 100 µM
TGI (SNB-19 CNS): > 100 µM
TGI (HCC-2998 colon): > 100 µM
TGI (HT29 colon): > 100 µM
TGI (NCI-H23 lung): > 100 µM
TGI (OVCAR-4 ovarian): > 100 µM
TGI (786-0 renal): > 100 µM

CCON=C1C(C)(C)C(C)(C)C(C)(C)C1(C)C
TGI (SK-MEL-5 melanoma): > 100 µM
TGI (HOP-62 NSCLC): > 100 µM
TGI (DU-145 prostate): > 100 µM
TGI (NCI-H226 lung): > 100 µM
TGI (SNB-19 CNS): > 100 µM
TGI (HT29 colon): > 100 µM
TGI (NCI-H23 lung): > 100 µM
TGI (OVCAR-4 ovarian): > 100 µM
TGI (786-0 renal): > 100 µM

O=S(=O)([O-])[O-].[Cl-].[NH2-].[NH2-].[NH2-].[NH2-].[Ru+3].c1ccc(-c2cccnc2)cc1
GI50 (SK-MEL-5 melanoma): > 100 µM
TGI (SK-MEL-5 melanoma): > 100 µM
GI50 (HOP-62 NSCLC): > 100 µM
TGI (HOP-62 NSCLC): > 100 µM
GI50 (NCI-H226 lung): > 100 µM
TGI (NCI-H226 lung): > 100 µM
GI50 (HCC-2998 colon): > 100 µM
TGI (HCC-2998 colon): > 100 µM
GI50 (HT29 colon): > 100 µM
TGI (HT29 colon): > 100 µM
GI50 (NCI-H23 lung): > 100 µM
TGI (NCI-H23 lung): > 100 µM
GI50 (OVCAR-4 ovarian): > 100 µM
TGI (OVCAR-4 ovarian): > 100 µM
GI50 (786-0 renal): > 100 µM
TGI (786-0 renal): > 100 µM

CCN(CC)CC(=O)/C=C/c1ccc(C)cc1
TGI (SK-MEL-5 melanoma): 33.1 µM
TGI (HOP-62 NSCLC): > 100 µM
TGI (NCI-H226 lung): 53.8 µM
TGI (SNB-19 CNS): > 100 µM
TGI (HCC-2998 colon): 31.7 µM
TGI (HT29 colon): 45.1 µM
TGI (NCI-H23 lung): > 100 µM
TGI (OVCAR-4 ovarian): 29.3 µM
TGI (786-0 renal): 34.4 µM

CCOCC(=O)N[C@H]1CCc2cc(OC)c(OC)c(OC)c2-c2ccc(SC)c(=O)cc21
TGI (SK-MEL-5 melanoma): < 0.01 µM
TGI (HOP-62 NSCLC): > 100 µM
TGI (DU-145 prostate): 0.0582 µM
TGI (NCI-H226 lung): 0.398 µM
TGI (SNB-19 CNS): > 100 µM
TGI (NCI-H23 lung): 9.64 µM
TGI (OVCAR-4 ovarian): > 100 µM
TGI (786-0 renal): > 88 µM

CN(C)c1ccc(/C=C/C(=O)C(C)(C)C)cc1Br
TGI (SK-MEL-5 melanoma): 35.5 µM
TGI (HOP-62 NSCLC): > 100 µM
TGI (SNB-19 CNS): > 100 µM
TGI (HCC-2998 colon): 73.9 µM
TGI (HT29 colon): > 100 µM
TGI (NCI-H23 lung): 75.9 µM
TGI (OVCAR-4 ovarian): 52.2 µM
TGI (786-0 renal): 59 µM

O=C1c2ccccc2-c2nccc3cc(Cl)nc1c23
GI50 (SK-MEL-5 melanoma): 1.34 µM
TGI (SK-MEL-5 melanoma): 2.61 µM
GI50 (HOP-62 NSCLC): 2.89 µM
TGI (HOP-62 NSCLC): 18.6 µM
GI50 (NCI-H226 lung): 18.7 µM
TGI (NCI-H226 lung): > 81.5 µM
GI50 (SNB-19 CNS): 20.7 µM
TGI (SNB-19 CNS): 74.8 µM
GI50 (HCC-2998 colon): > 48.5 µM
TGI (HCC-2998 colon): > 100 µM
GI50 (NCI-H23 lung): 1.12 µM
TGI (NCI-H23 lung): 2.4 µM
GI50 (OVCAR-4 ovarian): 1.64 µM
TGI (OVCAR-4 ovarian): 3 µM
GI50 (786-0 renal): 5.72 µM
TGI (786-0 renal): > 100 µM

C=CCC12CCC(=O)C=C1CCC1(C2)OCCO1 (centres undefined)
TGI (SK-MEL-5 melanoma): > 100 µM
TGI (HOP-62 NSCLC): > 100 µM
TGI (NCI-H226 lung): > 100 µM
TGI (SNB-19 CNS): > 100 µM
TGI (HCC-2998 colon): > 100 µM
TGI (OVCAR-4 ovarian): > 100 µM
TGI (786-0 renal): > 100 µM

Cc1cc2c(cc1C)[n+](=O)c(C(=O)/C=C/c1ccc(Cl)cc1)c(C)n2[O-]
TGI (SK-MEL-5 melanoma): 58.7 µM
TGI (HOP-62 NSCLC): 68.7 µM
TGI (NCI-H226 lung): > 100 µM
TGI (SNB-19 CNS): > 100 µM
TGI (HCC-2998 colon): 46.1 µM
TGI (HT29 colon): 95.5 µM
TGI (NCI-H23 lung): 65.6 µM
TGI (OVCAR-4 ovarian): 81.9 µM
TGI (786-0 renal): 34.4 µM

O=C(CC1(O)C(=O)Nc2ccc(Br)cc21)c1ccc(Cl)cc1 (centres undefined)
TGI (SK-MEL-5 melanoma): > 100 µM
TGI (HOP-62 NSCLC): > 100 µM
TGI (NCI-H226 lung): > 100 µM
TGI (SNB-19 CNS): > 100 µM
TGI (HT29 colon): > 100 µM
TGI (NCI-H23 lung): > 100 µM
TGI (OVCAR-4 ovarian): > 100 µM
TGI (786-0 renal): > 100 µM

CC1CCC2(NC1)OC1CC3[C@@H]4CC=C5C=CCC[C@]5(C)C4CC[C@]3(C)C1C2C (some centres undefined)
TGI (SK-MEL-5 melanoma): 30.8 µM
TGI (HOP-62 NSCLC): 36.6 µM
TGI (NCI-H226 lung): > 100 µM
TGI (SNB-19 CNS): > 100 µM
TGI (HCC-2998 colon): 31.4 µM
TGI (HT29 colon): 32.1 µM
TGI (NCI-H23 lung): > 100 µM
TGI (OVCAR-4 ovarian): 51 µM
TGI (786-0 renal): 35.5 µM

NC1CCCCC1N.O=C([O-])P(=O)([O-])[O-].[Na+].[Pt+4] (centres undefined)
GI50 (HOP-62 NSCLC): > 100 µM
TGI (HOP-62 NSCLC): > 100 µM
GI50 (NCI-H226 lung): > 100 µM
TGI (NCI-H226 lung): > 100 µM
GI50 (SNB-19 CNS): > 100 µM
TGI (SNB-19 CNS): > 100 µM
GI50 (HT29 colon): > 100 µM
TGI (HT29 colon): > 100 µM
GI50 (NCI-H23 lung): > 100 µM
TGI (NCI-H23 lung): > 100 µM
GI50 (OVCAR-4 ovarian): > 100 µM
TGI (OVCAR-4 ovarian): > 100 µM
GI50 (786-0 renal): > 100 µM
TGI (786-0 renal): > 100 µM

O=c1[nH]c(-c2ccccc2)nc2ccc(Cl)cc12
TGI (NCI-H226 lung): > 100 µM
TGI (SNB-19 CNS): > 100 µM
TGI (HCC-2998 colon): > 100 µM
TGI (HT29 colon): > 100 µM
TGI (NCI-H23 lung): > 100 µM
TGI (OVCAR-4 ovarian): > 100 µM
TGI (786-0 renal): > 100 µM

NC(N)=N/N=C/c1c(-c2cccs2)nc2sccn12
GI50 (SK-MEL-5 melanoma): 13.6 µM
TGI (SK-MEL-5 melanoma): 26.5 µM
GI50 (HOP-62 NSCLC): 11.2 µM
TGI (HOP-62 NSCLC): 23.3 µM
GI50 (DU-145 prostate): 13.6 µM
TGI (DU-145 prostate): 26.4 µM
GI50 (NCI-H226 lung): 13.2 µM
TGI (NCI-H226 lung): 26 µM
GI50 (SNB-19 CNS): 14.8 µM
TGI (SNB-19 CNS): 28.6 µM
GI50 (HT29 colon): 13.2 µM
TGI (HT29 colon): 27.1 µM
GI50 (NCI-H23 lung): 14.3 µM
TGI (NCI-H23 lung): 29 µM
GI50 (OVCAR-4 ovarian): 5.89 µM
TGI (OVCAR-4 ovarian): 20 µM
GI50 (786-0 renal): 9.61 µM
TGI (786-0 renal): 21.4 µM

CCCCCCCCCCCCCC[P+](CCCCCC)(CCCCCC)CCCCCC
GI50 (SK-MEL-5 melanoma): 0.0829 µM
TGI (SK-MEL-5 melanoma): 0.258 µM
GI50 (HOP-62 NSCLC): 0.229 µM
GI50 (DU-145 prostate): 0.0857 µM
TGI (DU-145 prostate): 1.68 µM
GI50 (SNB-19 CNS): 0.0688 µM
TGI (SNB-19 CNS): > 100 µM
GI50 (HCC-2998 colon): 0.168 µM
TGI (HCC-2998 colon): 1.69 µM
GI50 (HT29 colon): 0.0527 µM
TGI (HT29 colon): 3.26 µM
GI50 (NCI-H23 lung): 0.083 µM
TGI (NCI-H23 lung): 1.4 µM
GI50 (OVCAR-4 ovarian): 0.126 µM
GI50 (786-0 renal): 0.253 µM
TGI (786-0 renal): 2.1 µM

CCNc1c(C(=O)N(CC)CC)c(=O)[nH]c2ncccc12
TGI (SK-MEL-5 melanoma): > 100 µM
TGI (HOP-62 NSCLC): > 100 µM
TGI (NCI-H226 lung): > 100 µM
TGI (SNB-19 CNS): > 100 µM
TGI (HCC-2998 colon): > 100 µM
TGI (HT29 colon): > 100 µM
TGI (NCI-H23 lung): > 100 µM
TGI (OVCAR-4 ovarian): > 100 µM
TGI (786-0 renal): > 100 µM

Cc1ccc(C(=O)O/N=C2/CCCCC2CN(C)C)cc1 (centres undefined)
TGI (SK-MEL-5 melanoma): > 100 µM
TGI (HOP-62 NSCLC): > 100 µM
TGI (NCI-H226 lung): > 100 µM
TGI (HCC-2998 colon): > 100 µM
TGI (HT29 colon): > 100 µM
TGI (NCI-H23 lung): > 100 µM
TGI (OVCAR-4 ovarian): > 100 µM
TGI (786-0 renal): > 100 µM

CC(=N\O)/C(C)=N/O.CC(=N\O)/C(C)=N/O.CC(=N\O)/C(C)=N/O.CC(=N\O)/C(C)=N/O.[Cu].[Cu]
GI50 (SK-MEL-5 melanoma): 17.8 µM
TGI (SK-MEL-5 melanoma): 32.2 µM
GI50 (HOP-62 NSCLC): 24.7 µM
TGI (HOP-62 NSCLC): 64.8 µM
GI50 (DU-145 prostate): 56.8 µM
TGI (DU-145 prostate): > 100 µM
GI50 (NCI-H226 lung): 23.5 µM
TGI (NCI-H226 lung): 39.2 µM
GI50 (SNB-19 CNS): 19.7 µM
TGI (SNB-19 CNS): 34.5 µM
GI50 (HCC-2998 colon): 16.8 µM
TGI (HCC-2998 colon): 30.5 µM
GI50 (HT29 colon): 17.7 µM
TGI (HT29 colon): 35.4 µM
GI50 (OVCAR-4 ovarian): 20.4 µM
TGI (OVCAR-4 ovarian): 35.9 µM
GI50 (786-0 renal): 19.8 µM
TGI (786-0 renal): 36.8 µM
